Like-named read-outs stand apart in the source and are kept apart here.
Columns and labels:
[1] = Hygroscopicity study by dynamic vapor sorption (DVS); format: physicochemical; details: 80% RH/25° C.
Experimental: Instrument model: SMS DVS Intrinsic dynamic vapor sorption instrument
Test conditions: The sample (10 mg) was taken and placed in a DVS sample plate for testing.
Detailed DVS parameters were as follows:
Drying: 25° C., 0% RH drying for 2 hours
Range of Rh (%) test step: 0%-95%-0% RH
SMS DVS intrinsic dynamic vapor adsorption instrument
A sample (10 mg) was taken and placed in a DVS sample plate for testing.

BCR-FMS-BaF3 cells = assay: CellTiter-Glo luminescent cell viability / cell proliferation assay; format: cell-based; details: for IC50: 72 h, BCR-FMS-BaF3, 3 days incubation
Excerpt: Luminescent Cell Viability Assay (CellTiter-Glo® methold) from Promega was used for cell proliferation detection. CellTiter-Glo® Luminescent Cell Viability Assay (CellTiter-Glo® luminescent cell viability detection kit) was a homogeneous rapid detection method for detecting the viability of living cells in culture by quantitative determination of ATP. ATP was an indicator of the metabolism of living cells. Cell lysis and the resulting light signal were proportional to the amount of present ATP, and the amount of ATP is directly proportional to the number of living cells in the culture. The higher the fluorescence reading indicated the higher ATP content in the cell and also the higher the cell viability. Therefore, the inhibition degree of compound on cell proliferation can be monitored by fluorescence value. 1) The compound was diluted 2 mM with 100% DMSO, that is, 5 μL of 10 mM compound storage solution was taken and put into the first column of 96-well compound plate, then 20 μL of 100% DMSO were added and mixed well; 2) 20 μL of 100% DMSO was added to the second column to the tenth column of 96-well compound plate; 3) 5 μL of compound was taken from the first column to the second column and mixed well, and then 5 μL of compound was taken from the second column to the third column and mixed well. The above steps were repeated to the ninth column to complete the gradient dilution of the compound; 4) Preparation of compound working solution: 2 μL of compound per well from the second column of the compound plate was taken to a new 96 well compound plate, and 78 μL of cell culture medium per well was added; 2 μL of 100% DMSO from the negative control well was taken and 78 μL of cell culture medium was added; and 5) The compound concentration was the final concentration, in which the blank control well was the culture medium well without cells, and the negative control was 0.5% DMSO. 1) The BCR-FMS-BaF3 cell suspension was collected and centrifuged at 1000 rpm (revolutions per minute) for 5 minutes. The supernatant was removed, cells were resuspended with preheated medium and counted. After counting, the cell suspension was diluted with cell culture medium to the required density. Each well was inoculated with 80 μL cell suspension into 96 well cell culture plate. 2) On the day of the experiment, 20 μL of compound working solution was added to the cell plate and incubated for 3 days at 37° C. in a 5% CO2 incubator. [table] 3) After the incubation is completed, 20 μL of CTG detection reagent was added to each well of the cell plate, and incubated at 25° C. for 10 minutes. After the incubation is completed, EnVision was used for luminescence signal detection. […]

[2] = Solid stability test (XRPD crystal form after storage); format: physicochemical
Excerpt: The samples placed at high temperature and humidity were sampled for XRPD testing on the 10th and 30th day; The samples exposed to light were put into a clean surface dish, laid into a thin layer, covered with a quartz glass cover, and sampled for XRPD testing on the 5th and 10th days; For the long-term test and accelerated test (shading), each sample were put into a double-layer LDPE bag, each layer of LDPE bag was respectively buckled and sealed, and then the LDPE bag was put into an aluminum foil bag with a package of desiccant and heat sealed. The samples were respectively placed at 25° C./60% RH, 30° C./65% RH and 40° C./75% RH for exploration, the test results were compared with the initial test results of 0 day and the test results were shown in Table 7 below.

[3] = as above; format: physicochemical; details: 40° C./75% RH(open)

CNC(=O)c1nccc2c(-c3cnc(Nc4ccc(OC5CC5)nc4)cc3C)c[nH]c12.Cl
Classification of hygroscopicity [1]: slight hygroscopicity | ΔW (hygroscopic weight gain) ([1]; DVS): 0.28% | IC50 (BCR-FMS-BaF3 cells; mean of N = 1 and N = 2, read-out: IC50 (nM) Mean value ± SD): 2.46 ± 0.008 nM | IC50 (BCR-FMS-BaF3 cells; replicate N = 1, read-out: IC50 (nM) N = 1): 2.46 nM | IC50 (BCR-FMS-BaF3 cells; replicate N = 2, read-out: IC50 (nM) N = 2): 2.47 nM | Inhibition of proliferation of BCR-FMS-BaF3 cells (conclusion in words) (BCR-FMS-BaF3 cells; BCR-FMS-BaF3 cells): significantly inhibit the proliferation | Crystal form (XRPD) ([2]; 0 days (initial)): crystal form B | Crystal form (XRPD) ([2]; 25° C./60% RH, 3 M): crystal form B | Crystal form (XRPD) ([2]; 25° C./60% RH, 6 M): crystal form B | Crystal form (XRPD) ([2]; 25° C./60% RH, 24 M): crystal form B | Crystal form (XRPD) ([2]; 30° C./65% RH, 1 M): crystal form B | Crystal form (XRPD) ([2]; 30° C./65% RH, 3 M): crystal form B | Crystal form (XRPD) ([2]; 30° C./65% RH, 6 M): crystal form B | Crystal form (XRPD) ([2]; high humidity (25° C./relative humidity 92.5%, open), 10 days): crystal form B | Crystal form (XRPD) ([2]; high humidity (25° C./relative humidity 92.5%, open), 30 days): crystal form B | Crystal form (XRPD) ([2]; high temperature (60° C., open), 10 days): crystal form B | Crystal form (XRPD) ([2]; high temperature (60° C., open), 30 days): crystal form B | Solid stability (conclusion) ([2]; influencing factors, light, acceleration and long-term experimental conditions): good stability | Crystal form (XRPD) ([2]; strong light (5000 lx and UV intensity 90 w/cm^2, open), 5 days): crystal form B | Crystal form (XRPD) ([2]; strong light (5000 lx and UV intensity 90 w/cm^2, open), 10 days): crystal form B | Crystal form (XRPD) ([3]; 1 M): crystal form B | Crystal form (XRPD) ([3]; 3 M): crystal form B | Crystal form (XRPD) ([3]; 6 M): crystal form B

From patent publication US20250188077A1, “CRYSTAL FORM OF 1H-PYRROLO[2,3-C]PYRIDINE COMPOUND AND PREPARATION METHOD THEREFOR” (JUMBO DRUG BANK CO., LTD., priority 2022, published 2025)
